We go through 33 compounds from ChEMBL document CHEMBL1128355, “Benzophenone derivatives: a novel series of potent and selective inhibitors of human immunodeficiency virus type 1 reverse transcriptase” (J Med Chem, 1995).

Series [1] relates to C8166. As to the kind of experiment: Inhibitory activity against P24 antigen formation in infected C8166 cells. Type of series: functional, cell-based. The conditions noted are these: Homo sapiens.
In series [2] the test system is Human immunodeficiency virus 1. As to the kind of experiment: Antiviral activity against HIV-1 (strain RF) infected MT-4 cells. It is filed as functional, organism-based. Conditions: Human immunodeficiency virus 1, MT4.
Series [3] in a line: Toxicity against uninfected MT-4 cells. Conditions: human. Type of series: cell-based, MT4.
For series [4], the target named is Human immunodeficiency virus type 1 reverse transcriptase (Human immunodeficiency virus 1, UniProt Q72547). As to the kind of experiment: Inhibitory activity against HIV-1 reverse transcriptase.
In series [5] the test system is C8166. In words: Inhibitory activity against syncytia formation in infected C8166 cells. Type of series: functional, cell-based. The conditions noted are these: Homo sapiens.
Series [6] has as its system MT4. As to the kind of experiment: Antiviral activity against HIV-1 resistant to 2-(2-Benzoyl-4-chloro-phenyl)-N-[4-(3-dimethylamino-propoxy)-2-methyl-phenyl]-acetamide in MT-4 cells. Conditions: Homo sapiens. It is filed as functional, cell-based.
The subject of series [7] is MT4. In words: Cytotoxicity against uninfected MT-4 cells. It is filed as functional, cell-based, Homo sapiens.
Series [8] can be described thus: Half life period in mouse S9 liver preparation. Type of series: ADME. The conditions noted are these: liver S9 fraction.
Series [9] is described as follows: Half life period in mouse serum. Type of series: ADME, organism-based.
Setting [10] is: Homo sapiens, MT4, read-out: IC50.

SMILES strings stand for the structures. In brackets after ≈: the same amount, converted by molar mass. A value given as a limit tells only on which side of the number the result lay.

Consider `O=C(COc1ccc(F)cc1C(=O)c1ccccc1)Nc1ccccc1`, for which the IC50 in the series with C8166 [1] is 0.006 µg/mL (≈ 0.0172 µM); in [2], 0.09 µg/mL (≈ 0.258 µM); in [3], 10 µg/mL (≈ 28.6 µM); in series [4], 0.00859 µM; in the series on C8166 [5], 0.014 µg/mL (≈ 0.0401 µM).
For the compound `CN(C)CCCOc1ccc(NC(=O)Cc2ccc(Cl)cc2C(=O)c2ccccc2)cc1`, the IC50 was 0.21 µg/mL (≈ 0.466 µM) in series [2], 10 µg/mL (≈ 22.2 µM) in series [3] and 0.443 µM in series [4].
For the compound `Nc1ccn([C@@H]2CS[C@H](CO)O2)c(=O)n1` [LAMIVUDINE], the IC50 in the series with MT4 [6] was 0.048 µg/mL (≈ 0.209 µM); in [2], 0.043 µg/mL (≈ 0.188 µM); with MT4 [7] (setting [10]) it was above 100 µg/mL.
Turning to `CN(C)CCCOc1ccc(NC(=O)COc2ccc(Cl)cc2C(=O)c2ccccc2)cc1`, the half-life in [8] is above 2 h; in series [9], below 0.25 h. In addition, the IC50 with C8166 [1] is below 0.0005 µg/mL; in series [2], below 0.01 µg/mL; in [3], above 0.5 µg/mL; in [4], 0.208 µM; with C8166 [5], 0.0009 µg/mL (≈ 0.00193 µM).
Take `O=C(COc1ccc(Cl)cc1C(=O)C1CCCC1)Nc1ccccc1`: the IC50 in [2] was 0.22 µg/mL (≈ 0.615 µM); in [3] it was above 100 µg/mL; in [4], 5.03 µM.
For `Cc1ccnc2c1NC(=O)c1cccnc1N2C1CC1` [NEVIRAPINE], the figures for the IC50 (with MT4 [6]; in series [2]; in the series with MT4 [7] (setting [10])) were 0.22 µg/mL (≈ 0.826 µM), 0.01 µg/mL (≈ 0.0376 µM) and above 10 µg/mL, respectively.
`O=C(c1ccccc1)c1cc(Cl)ccc1OCc1nc2ccccc2[nH]1`: the half-life in series [8] and in series [9] was above 6 h each time. Further, the IC50 in the series on C8166 [1] was 0.032 µg/mL (≈ 0.0882 µM); in series [2], 0.31 µg/mL (≈ 0.854 µM); in [3] it was above 0.5 µg/mL; in series [4], 1.41 µM; in the series with C8166 [5], 0.052 µg/mL (≈ 0.143 µM).
Consider `Cc1cc(OCCCN(C)C)ccc1NC(=O)c1ccc(Cl)cc1C(=O)c1ccccc1`, for which the IC50 in [4] was above 222 µM.
Take `O=C(COc1ccc(Cl)cc1C(=O)c1ccccc1)Nc1ccccc1`: the half-life in [8] and in [9] was below 0.25 h throughout. Also, the IC50 with C8166 [1] was 0.0012 µg/mL (≈ 0.00328 µM); in series [2] it was 0.0004 µg/mL (≈ 0.00109 µM); in series [3] it was above 0.005 µg/mL; in series [4] it was 0.0273 µM; in the series with C8166 [5], 0.0002 µg/mL (≈ 0.000547 µM).
As for `O=C(c1ccccc1)c1cc(Cl)ccc1OCC(=O)N1CCc2ccccc2C1`, the half-life in [8] is 2.8 h; in series [9], 1.2 h. Moreover, the IC50 was 0.016 µg/mL (≈ 0.0394 µM) in the series on C8166 [1]; 0.014 µg/mL (≈ 0.0345 µM) in series [2]; above 0.5 µg/mL in [3]; 0.0148 µM in [4]; 0.011 µg/mL (≈ 0.0271 µM) with C8166 [5].
The compound `O=C(COc1ccc(Cl)cc1C(=O)c1ccccc1)NC1CCCCC1` had an IC50 in series [4] of 39 µM.
In series [4], `O=C(COc1ccc(Cl)cc1C(O)c1ccccc1)Nc1ccccc1` (configuration not stated) displayed an IC50 above 272 µM.
`O=C(COc1ccc(Cl)cc1C(=O)c1ccccc1)Cc1ccccc1`: the figures for the IC50 in [2], in series [3] and in [4] were above 100 µg/mL, above 100 µg/mL and 32.9 µM, respectively.
For `O=C(COc1ccc(-n2ccnc2)cc1C(=O)c1ccccc1)Nc1ccccc1`, the IC50 was above 10 µg/mL in [2], 10 µg/mL (≈ 25.2 µM) in series [3] and above 25.2 µM in series [4].
`O=C(COc1c(Cl)cc(Cl)cc1C(=O)c1ccccc1)Nc1ccccc1`: the IC50 in series [4] was above 250 µM.
On to `O=C(c1ccccc1)c1cc(Cl)ccc1OC/C=C/c1ccccc1`, for which, in series [4], the IC50 was above 287 µM.
For the compound `O=C(COc1ccc(Cl)cc1C(=O)c1cccnc1)Nc1ccccc1`, the half-maximal inhibitory concentration (IC50) in series [2] was below 0.01 µg/mL; in series [3], 10 µg/mL (≈ 27.3 µM); in series [4] it was 0.436 µM.
For `CCN(CC)CCOc1ccc(NC(=O)COc2ccccc2C(=O)c2ccc(F)cc2)cc1`, the IC50 in the series on C8166 [1] was below 0.05 µg/mL; in series [2] it was 0.75 µg/mL (≈ 1.61 µM); in [3] it was above 0.5 µg/mL; in [4] it was 21.5 µM; in the series with C8166 [5] it was 0.016 µg/mL (≈ 0.0344 µM).
`CCc1cc(OCCCN(C)C)ccc1NC(=O)Cc1ccc(Cl)cc1C(=O)c1ccccc1`: the IC50 in series [2] is 0.21 µg/mL (≈ 0.438 µM); in series [3] it was 10 µg/mL (≈ 20.9 µM); in [4] it was 5.22 µM.
Turning to `O=C(c1ccccc1)c1cc(Cl)ccc1OCCNc1ccccc1`, the IC50 in [4] was above 284 µM.
Regarding `O=C(COc1ccc(Cl)cc1C(=O)c1ccccc1)c1cc2ccccc2[nH]1`, the figures for the half-life in [8] and in [9] were 3.5 h and below 0.25 h, respectively. Besides, the IC50 in the series with C8166 [1] is above 5 µg/mL; in [2], 0.7 µg/mL (≈ 1.8 µM); in series [3], 10 µg/mL (≈ 25.7 µM); in series [4] it was 0.162 µM; in the series with C8166 [5], above 50 µg/mL.
The compound `Cc1cc(OCCCN(C)C)cc(C)c1NC(=O)Cc1ccc(Cl)cc1C(=O)c1ccccc1` registered an IC50 in [4] above 104 µM.
On to `CCN(CC)CCOc1ccc(NC(=O)COc2ccccc2C(=O)c2ccc(OC)cc2)cc1`, for which the IC50 in the series with C8166 [1] was 0.18 µg/mL (≈ 0.378 µM); in series [2] it was 0.44 µg/mL (≈ 0.923 µM); in series [3], 5 µg/mL (≈ 10.5 µM); in series [4], 14.3 µM; in the series with C8166 [5], 0.34 µg/mL (≈ 0.713 µM).
Regarding `CCN(CC)CCOc1ccc(NC(=O)COc2ccc(Cl)cc2C(=O)c2ccccc2)cc1`, the IC50 in series [2] is above 10 µg/mL; in series [3], 10 µg/mL (≈ 20.8 µM); in series [4] it was 0.936 µM.
Regarding `CCN(CC)CCOc1ccc(NC(=O)COc2ccccc2C(=O)c2ccccc2)cc1`, the IC50 in the series with C8166 [1] was 0.0015 µg/mL (≈ 0.00336 µM); in series [2] it was below 0.001 µg/mL; in series [3], above 0.5 µg/mL; in [4] it was 5.15 µM; in the series with C8166 [5], 0.005 µg/mL (≈ 0.0112 µM).
For `CC(C)(C)NC(=O)[C@@H]1C[C@@H]2CCCC[C@@H]2CN1C[C@@H](O)[C@H](Cc1ccccc1)NC(=O)[C@H](CC(N)=O)NC(=O)c1ccc2ccccc2n1` [SAQUINAVIR], the results for the IC50 (in the series on MT4 [6]; in series [2]; in the series with MT4 [7] (setting [10])) were 0.0038 µg/mL (≈ 0.00566 µM), 0.028 µg/mL (≈ 0.0417 µM) and above 1 µg/mL, respectively.
With `Cc1cc(OCCCN(C)C)ccc1NC(=O)Cc1ccc(Cl)cc1C(=O)c1ccccc1`, the half-life is 1.8 h in series [8] and 4.75 h in series [9]. In addition, the IC50 was 0.0029 µg/mL (≈ 0.00624 µM) with C8166 [1]; 0.0044 µg/mL (≈ 0.00946 µM) in [2]; above 0.5 µg/mL in series [3]; 0.753 µM in series [4]; 0.016 µg/mL (≈ 0.0344 µM) in the series with C8166 [5].
In the case of `CCc1cc(NCc2nc3c(Cl)ccc(Cl)c3o2)c(O)nc1C` [L-697661], the IC50 in the series on MT4 [6] is 0.0023 µg/mL (≈ 0.00653 µM); in [2], 0.0017 µg/mL (≈ 0.00483 µM); in the series with MT4 [7] (setting [10]) it was 100 µg/mL (≈ 284 µM); in the series on MT4 [7] (mt4), 100 µg/mL (≈ 284 µM).
Take `CCN(CC)CCOc1ccc(NC(=O)COc2cc(OC)ccc2C(=O)c2ccccc2)cc1`: the IC50 in the series with C8166 [1] was 0.013 µg/mL (≈ 0.0273 µM); in [2], below 0.01 µg/mL; in series [3], 5 µg/mL (≈ 10.5 µM); in series [4], 13.2 µM; with C8166 [5] it was 0.05 µg/mL (≈ 0.105 µM).
In series [4], `O=C(COc1ccc(Cl)c(Cl)c1C(=O)c1ccccc1)Nc1ccccc1` gave an IC50 above 250 µM.
On to `Cc1ccccc1CNC(=O)COc1ccc(Cl)cc1C(=O)c1ccccc1`, for which the half-life was above 6 h in [8] and 2.8 h in series [9]. Further, the IC50 with C8166 [1] is 0.032 µg/mL (≈ 0.0812 µM); in [2] it was 0.028 µg/mL (≈ 0.0711 µM); in series [3], 10 µg/mL (≈ 25.4 µM); in series [4] it was 6.35 µM; with C8166 [5], 0.05 µg/mL (≈ 0.127 µM).
With `c1nc2cnncc2[nH]1`, the IC50 is 0.5 µg/mL (≈ 4.16 µM) in the series with MT4 [6], 0.004 µg/mL (≈ 0.0333 µM) in [2] and above 1 µg/mL in the series on MT4 [7] (setting [10]).
With `O=C(COc1cc(Cl)c(Cl)cc1C(=O)c1ccccc1)Nc1ccccc1`, the values for the IC50 in [2], in series [3] and in series [4] were 0.023 µg/mL (≈ 0.0575 µM), 100 µg/mL (≈ 250 µM) and 0.035 µM, respectively.
